The values below come from publication PMC6469618 (Environmental Science and Pollution Research International, 2019).

The test system of one data set is water louse. Conditions: naturalistic pond experiment; ref Lagesson et al. 2016; cited from earlier work.
The nature of data set [1]: Study 1: static water only, stability of methylphenidate and breakdown to ritalinic acid. Conditions: for Water concentration, measured end: final sampling day; for Water concentration, measured end / Water concentration, measured start: nominal 1870 ng/L methylphenidate, Ntanks = 1; for Water concentration, measured start: immediately after dosing. As for the experimental part: A total of 1870 ng/L (nominal concentration) of methylphenidate (1 mL of the stock solution) was added to a glass aquarium filled with 20 L of ground water. The tank was aerated and kept at 20 °C (ambient room temperature). Water was sampled at 0 min (immediately after dosing), 5 min, 15 min, 45 min, 90 min, 4 h, 10 h, 24 h, 2 days, 3 days, 4 days, 5 days, 7 days, and 12 days. This exposure was conducted in a windowless room with a light-dark cycle of 13L:11D.
(§1) Fifty microlitres of methylphenidate-D9 (500 ng/L) was added to 10-ml aliquots of the aqueous samples, filtered (0.45 μm, Filtropur S, Sarstedt, N~umbrecht, Germany), and acidified with 10 μL formic acid (0.1% v/v, Merck KGaA, Darmstadt, Germany) to a pH of 2.7.
(§2) All of the samples were injected to an EQuan MAX Plus LC-Quantiva triple quadrupole MS/MS (Thermo Scientific, San Jose, USA). A 10-μL injection volume was used for stickleback/louse extracts and the calibration curve. For the aqueous samples, and the corresponding calibration curve, a 1-mL injection volume was used and preconcentrated the analytes on an online-connected Oasis HLB column (2.1 × 20 mm, 15 μm Waters, Milford, USA) using column switching (70 s transfer time and 180 s elution time). Milli-Q ultra-pure water (Millipore) and methanol (Lichrosolv, Hypergrade, Merck) were used as mobile phases (both containing 0.1% formic acid (Suprapur, Merck KGaA), v/v) together with Hypersil GOLD columns (Thermo Scientific) as stationary phases: guard (20 × 2.1 mm, 3 μm) and analytical (50 × 2.1 mm, 3 μm). The flow rate was kept at 350 μL/min, and we used two linear gradients. The gradient for the stickleback/louse extracts were as follows: 0–2 min, methanol 2%; 2–4 min, methanol 2–100%; 4–6 min, methanol 100%; and 6.01–7.5 min, methanol 2%. For the aqueous samples, the gradient was 0–2 min, methanol 2%; 2–4.75 min, methanol 2–100%; 4.75–7 min, methanol 100%; and 7.01–9 min, methanol 2%.
(§3) Positive polarity and a heated electrospray at 338 °C, an ion transfer tube temperature at 350 °C, and a spray voltage at 3.5 kV were used. […] See supplementary materials for QA/QC data.
(§4) All analyses were conducted in R (version: 3.5.0; R Core Team [2018]). […] Welch’s two-sample t tests were used to analyse whether methylphenidate degradation in the water column was impacted by temperature treatment. […] Degradation/formation rate, kd, is the slope given by a linear regression analysis. […] Relative tissue uptake was calculated at each sampling point.

A short description of data set [2]: Study 2: static water + biota, concentrations in the water column. The conditions noted are these: for Formation time of ritalinic acid in water / Water concentration, measured end / Water concentration, measured start / half-life at 187 ng/L: static + biota; for Water concentration, measured end: final sampling day; for Water concentration, measured end / Water concentration, measured start: nominal 187 ng/L methylphenidate, mean ± s.d.; for Water concentration, measured start: immediately after dosing, Ntanks = 3; for half-life at 187 ng/L: aquarium water with biota (stickleback or water louse), pH 7, Half-life of methylphenidate in water. As for the experimental part:
Stickleback and water louse were exposed to 187 ng/L (nominal concentration) methylphenidate at two temperature treatments: 10 °C (in a climate chamber) and 20 °C (ambient room temperature). Both exposures were maintained at the same light cycle used in study 1. Organisms were exposed under static conditions using three replicate glass aquaria filled with 20 L water. The aquaria were equipped with an airstone and two ceramic clay pots for shelter in each temperature treatment. Fish were exposed in two tanks, while water louse were exposed separately in the remaining tank. Water from each tank was sampled at 0 min (immediately after dosing), 15 min, 30 min, 60 min, 4 h, 8 h, 24 h, 3 days, 5 days, 7 days, 9 days, 10 days, 11 days, 12 days, and 13 days. Three to six water louse and three to six fish were sampled at each of the following time points: 60 min, 4 h, 8 h, 24 h, 3 days, 5 days, 7 days, 9 days, 10 days, 11 days, 12 days, and 13 days. Fish were euthanized via cerebral concussion and spinal severance. Water quality measures of pH (Merck pH Universal Indicator Strips), dissolved oxygen, and temperature (YSI Pro DO Series) were verified in the exposure tanks on the final days of sampling.
as §1, §2, §3, §4

In another data set the test system is zebrafish (Danio rerio). On the set-up: method as in Endres et al. 2017. The conditions noted are these: stressed zebrafish; environmentally relevant concentrations; ref Endres et al. 2017; cited from earlier work.
The subject of data set [3] is guppies (Poecilia reticulata). Also on record: method as in De Serrano et al. 2016. Conditions: adult guppies exposed to 250 ng/L; ref De Serrano et al. 2016; cited from earlier work.
The subject of another data set is zebrafish. On the set-up: method as in Levin et al. 2011. The conditions noted are these: zebrafish exposed to 50 mg/L as embryos; ref Levin et al. 2011; cited from earlier work.
Data set [4] in a line: in vivo. Conditions: nine-spine stickleback (Pungitius pungitius), 187 ng/L.
Excerpt: (§5) Nine-spine stickleback were collected using umbrella traps from ponds in Röbäck, Sweden, in July 2017. Fish were housed in a large, aerated, ground water flow-through tank (1500 L) until the start of the experiment. Fish were fed frozen chironomid larvae until satiation once daily. Water louse were collected using sweep nets from Djupsundsbäcken near Holmsund, Sweden, in January 2018. Water louse were kept in aerated containers with detritus (predominately alder leaf litter) until the start of the experiment.
(§6) Stickleback and water louse were exposed to 187 ng/L (nominal concentration) methylphenidate at two temperature treatments: 10 °C (in a climate chamber) and 20 °C (ambient room temperature). Both exposures were maintained at the same light cycle used in study 1. Organisms were exposed under static conditions using three replicate glass aquaria filled with 20 L water. The aquaria were equipped with an airstone and two ceramic clay pots for shelter in each temperature treatment. Fish were exposed in two tanks, while water louse were exposed separately in the remaining tank. Water from each tank was sampled at 0 min (immediately after dosing), 15 min, 30 min, 60 min, 4 h, 8 h, 24 h, 3 days, 5 days, 7 days, 9 days, 10 days, 11 days, 12 days, and 13 days. Three to six water louse and three to six fish were sampled at each of the following time points: 60 min, 4 h, 8 h, 24 h, 3 days, 5 days, 7 days, 9 days, 10 days, 11 days, 12 days, and 13 days. Fish were euthanized via cerebral concussion and spinal severance. Water quality measures of pH (Merck pH Universal Indicator Strips), dissolved oxygen, and temperature (YSI Pro DO Series) were verified in the exposure tanks on the final days of sampling. For the low (10 °C) and high (20 °C) temperature rooms, respectively, water temperature was (mean ± s.d.) 10.03 ± 0.32 °C and 17.07 ± 0.21 °C; dissolved oxygen was 14.40 ± 0.27 mg/L and 12.30 ± 0.30 mg/L; and there were no changes in pH (7 ± 0, for both temperatures).
(§7) Immediately after sampling, all water and organisms sampled were frozen at − 20 °C until further processing. Muscle tissue (mean ± s.d. 0.09 ± 0.02 g; range 0.02–0.13 g) was dissected from each stickleback by taking a section of the dorsal axial muscle. Water louse collected from each temperature treatment (10 °C and 20 °C) on each sampling day were pooled due to low sample weight before extracting whole-body tissue (0.05 ± 0.01 g; range 0.03–0.07 g). However, when enough tissue was available, multiple water louse samples were analysed. To each sample, 5 ng (50 μL) of the internal standard methylphenidate-D9 (Cerilliant, USA; in methanol, HPLC-grade, Fisher Chemical, Loughborough, UK) was added. For both stickleback and water louse, tissues were extracted using 1.5 ml acetonitrile (HPLC-grade, Fisher Chemical, Loughborough, UK) repeated twice (based on the method used by Brodin et al. [2013]; McCallum et al. [2017], [2018]). The samples were homogenized and extracted for 4 min at 42,000 oscillations per minute (Mini Beadbeater, Biospec. Bartlesville, USA) with zirconium beads and then centrifuged the samples at 17,500 g for 10 min (Beckman Coulter Microfuge 22R Centrifuge). This protocol was used for both eluent mixtures, and the supernatants were combined. The combined supernatants were evaporated to 20 μl and the sample was reconstituted in 100 μl methanol (HPLC-grade, Fisher Chemical, Loughborough, UK). […]
A short description of data set [5]: in vivo. The conditions noted are these: water louse (Asellus aquaticus), 187 ng/L.
Excerpt: as §5, §6
(§8) Immediately after sampling, all water and organisms sampled were frozen at − 20 °C until further processing. Muscle tissue (mean ± s.d. 0.09 ± 0.02 g; range 0.02–0.13 g) was dissected from each stickleback by taking a section of the dorsal axial muscle. Water louse collected from each temperature treatment (10 °C and 20 °C) on each sampling day were pooled due to low sample weight before extracting whole-body tissue (0.05 ± 0.01 g; range 0.03–0.07 g). However, when enough tissue was available, multiple water louse samples were analysed. To each sample, 5 ng (50 μL) of the internal standard methylphenidate-D9 (Cerilliant, USA; in methanol, HPLC-grade, Fisher Chemical, Loughborough, UK) was added. For both stickleback and water louse, tissues were extracted using 1.5 ml acetonitrile (HPLC-grade, Fisher Chemical, Loughborough, UK) repeated twice (based on the method used by Brodin et al. [2013]; McCallum et al. [2017], [2018]). The samples were homogenized and extracted for 4 min at 42,000 oscillations per minute (Mini Beadbeater, Biospec. Bartlesville, USA) with zirconium beads and then centrifuged the samples at 17,500 g for 10 min (Beckman Coulter Microfuge 22R Centrifuge). This protocol was used for both eluent mixtures, and the supernatants were combined. The combined supernatants were evaporated to 20 μl and the sample was reconstituted in 100 μl methanol (HPLC-grade, Fisher Chemical, Loughborough, UK).
For data set [6] the following is noted: ref SciFinder; cited from earlier work.
A further data set has as its system humans. Conditions: standard dose (18 mg); ref Faraj et al. 1974; Concerta Prescribing Information 2013; cited from earlier work.
For the next data set, the system named is human. The conditions noted are these: oral administration, ref Gualtieri et al. 1982, Doerge et al. 2000; cited from earlier work.
The next data set deals with rhesus macaque. Conditions: oral administration, ref Gualtieri et al. 1982, Doerge et al. 2000; cited from earlier work.
For data set [7], the system named is nine-spine stickleback (Pungitius pungitius). Description: Study 2: uptake in muscle tissue of stickleback. Conditions: for Start relative tissue concentration (Cb/Cw): 60 min after dosing.
Excerpt: as §5, §6, §7
Data set [8] concerns water louse (Asellus aquaticus). Nature of the data set: Study 2: uptake in whole-body tissue of water louse. The conditions noted are these: for Start relative tissue concentration (Cb/Cw): 60 min after dosing; for End relative tissue concentration (Cb/Cw): final sampling day.
Excerpt: as §5, §6, §8

The structures appear in SMILES notation. Several values for one entry are separate records, joined by “and”; a condition that tells them apart may be missing. Equal values may be shown once.

As for `O=C1Nc2ccc(Cl)cc2C(c2ccccc2)=NC1O` (stereo not drawn) [oxazepam], in the data set with water louse, the “Bioconcentration in water louse compared to European perch (Perca fluviatilis)” value was “higher levels”.
Take `OCCOCCN1CCN(C(c2ccccc2)c2ccc(Cl)cc2)CC1` (stereo not drawn) [hydroxyzine]: the “Bioconcentration in water louse compared to European perch (Perca fluviatilis)” value with water louse is “higher levels”.
Turning to `O=C(O)C(c1ccccc1)C1CCCCN1` (stereo not drawn) [ritalinic acid, α-phenyl-2-piperidine acetic acid], the “Formation time of ritalinic acid in water” value was found to be 79 h in data set [1] (20 °C, static water only); 62 h in data set [2] (10 °C); 65 h in data set [2] (20 °C). Besides, the “Water concentration, measured end” value in data set [1] (20 °C, static water only) worked out at 1606 ng/L; in [2] (10 °C), 202 ± 12 ng/L; in data set [2] (20 °C), 231 ± 12 ng/L. For the same compound, the “Water concentration, measured start” value is recorded as 387 ng/L in [1] (20 °C, static water only); 11 ± 10 ng/L in data set [2] (10 °C); 8 ± 2 ng/L in [2] (20 °C). Also, the “Time after which ritalinic acid concentration surpasses methylphenidate in water” value in [1] (water without biota, depending on temperature) is 48 to 100 h; in data set [2] (water with biota, depending on temperature), 48 to 100 h.
On to `COC(=O)C(c1ccccc1)C1CCCCN1` (stereo not drawn) [methylphenidate], for which the “Water concentration, measured end” value in [1] (20 °C, static water only) turned out to be 7 ng/L; in data set [2] (10 °C), 28 ± 4 ng/L; in data set [2] (20 °C), 2 ± 1 ng/L. The “Water concentration, measured start” value in data set [1] (20 °C, static water only) came out at 1660 ng/L; in [2] (10 °C) it was 192 ± 28 ng/L; in data set [2] (20 °C) it was 205 ± 19 ng/L. For the same compound, in data set [1] (ground water in an aerated glass aquarium, no biota), the half-life – broadly, the time in which the quantity being followed falls by half – at 1870 ng/L was 2220 min. In addition, the “Time that concentrations stay above ~ 180 ng/L in the water column” value in [1] (study not given) is “up to 2 days”. In addition, the half-life at 187 ng/L was 5.08 days in [2] (10 °C) and 1.96 days in data set [2] (20 °C). Also, in the data set on zebrafish (Danio rerio), the “Effect on anxiety-like behaviours (e.g., freezing, hiding)” value is “inhibited anxiety-like behaviours”. Besides, the “Effect on anxiety behaviours” value (in data set [3]; in the data set with zebrafish) was “Reductions in anxiety behaviours” throughout. Besides, the figures for the concentration at 60 min in the data set “in vivo [4]” and in the data set “in vivo [5]” were 0.18 ng/g and 0.2 ng/g, respectively. The compound further displayed a concentration at 13 days in the data set “in vivo [5]” of 0.1 ng/g. Moreover, the pKa (as a rule, the negative logarithm of the acid dissociation constant) in data set [6] was 9.5. For the same compound, the “Share of dose excreted as ritalinic acid” value in the data set with humans is “up to 80%”. Besides, the “Time of peak in plasma” value in the data set on human and with rhesus macaque was 1 to 4 h in each case. Moreover, in [7], the “Time of highest tissue concentration (first sampling point)” value was found to be 60 min. In addition, the “Time of highest tissue concentrations” value in data set [7] is listed as no more than 4 h. The “Start relative tissue concentration (Cb/Cw)” value in [7] (10 °C) is recorded as 1.2 ± 0.5 (0.7–2.1); in [7] (20 °C), 0.5 ± 0.1 (0.4–0.7); in data set [8] (10 °C), 0.6; in [8] (20 °C), 1.1. Further, the results for the “End relative tissue concentration (Cb/Cw)” value in data set [8] (10 °C) and in data set [8] (20 °C) were 7.5 ± 3.2 (4.0–10.4) and 50.0, respectively. Besides, the “Time of peak tissue concentration” value in [8] (depending on temperature) was ~ 6 days and 5 to 7 days and 5–7 days.
